# Experimental data as given in patent US10512667B2, “Compositions and methods for treating conditions related to adrenocortical activity and/or excessive steroid production” (The Regents of the University of Michigan, priority 2017, dated 2019).
# “Also recorded” adds a separate entry of the source.
# Legend:
# H295R cells [1] = assay: Cholesterol efflux into serum-free medium with apoA1; assay type: cell-based; conditions: serum-free medium containing apoA-I, 4 h
# Protocol: Cholesterol efflux was measured by replacing the culture medium with serum-free medium supplemented with 5 μg/ml apoA1 (Sigma) and the indicated compounds. After the indicated time, the serum-free medium was collected, and the cholesterol concentration was measured using the fluorometric enzyme-linked assay (Cayman Chemical).
# After 48 h, the medium was removed and replaced with 50 μl serum-free medium supplemented with 5 μg/mL apoA1. After the indicated time, the supernatant containing the effluxed cholesterol, was transferred to a new 96-well plate. A cholesterol detection reagent (Cayman Chemical) consisting of cholesterol assay buffer, cholesterol assay detector (10-acetyl-3,7-dihydroxyphenoxazine [ADHP]), horseradish peroxidase, cholesterol oxidase, and cholesterol esterase was added, and the reactions were incubated for 30 min at 37 C. The fluorescence intensities were measured using ex. […] 590 nm. The cholesterol concentrations were calculated by interpolation between the values produced by cholesterol standards that were analyzed in parallel.
# CYP17A1 = assay: Transcript measurement by qPCR in H295R cells; assay type: cell-based; conditions: H295R cells cultured with ATR-101
# Protocol: (§1) mRNA was isolated (Qiagen), and was reverse transcribed using the Transcriptor First Strand cDNA synthesis kit (Roche). The relative amounts of cDNAs corresponding to the indicated transcripts were quantified using qPCR assays with specific primers (Table 2).
# (§2) H295R cells were seeded in 6-well tissue culture plates (Corning #3506) at a density of 5 X105 per well. After 48 h, the compound(s) indicated were added, and the cells were cultured for the indicated time. The cells were harvested in 1.35 ml culture medium with trypsin. The cells were collected by centrifugation and lysed in 350 μl of RLT buffer (Qiagen) with β-mercaptoethanol. mRNA extraction and DNase treatment were performed according to the manufacturer's protocol (Qiagen). All RNA samples had 260/280 ratios greater than 1.5. The same amount of RNA ranging from 0.1 to 0.5 μg was used for reverse transcription using the Roche Transcriptor First Strand cDNA synthesis kit (Roche #04897030001) using the manufacturer's protocol. SYBR Green I-based real-time qPCR assays were performed using a Roche LightCycler480 instrument. The levels of transcripts in different samples were normalized by the levels of RPL9 transcripts.
# HSD3B2 = assay: Transcript measurement by qPCR in H295R cells; assay type: cell-based; conditions: H295R cells cultured with ATR-101
# Protocol: as §1, §2
# IDOL = assay: Transcript measurement by qPCR in H295R cells; assay type: cell-based; conditions: within an hour after addition
# Protocol: as §1, §2
# ABCG1 = assay: Transcript measurement by qPCR in H295R cells; assay type: cell-based
# Protocol: as §1, §2
# SULT2A1 = assay: Transcript measurement by qPCR in H295R cells; assay type: cell-based; conditions: H295R cells cultured with ATR-101
# Protocol: as §1, §2
# CHOP = assay: Transcript measurement by qPCR in H295R cells; assay type: cell-based; conditions: 4 h
# Protocol: as §1, §2
# ABCA1 = assay: Transcript measurement by qPCR in H295R cells; assay type: cell-based
# Protocol: as §1, §2
# MDR1 = target: T1, MDR1 (Homo sapiens, UniProt P08183); assay: Doxorubicin accumulation / clearance in H295R cells; assay type: cell-based; conditions: 25 μM doxorubicin, 2 h
# T1 construct: measured the accumulation of doxorubicin in H295R cells; endogenous in cells; host or cells: H295R adrenocortical carcinoma cells
# Protocol: The medium was removed and immediately replaced with 100 μl of fresh media and intracellular doxorubicin fluorescence was visualized by fluorescence microscopy using a 20× objective.
# cholesterol-rich tissues = conditions: cynomologous monkeys; cited from earlier work
# H295R cells [2] = assay: Cell morphology by phase contrast microscopy; assay type: cell-based; conditions: 30 h, phase contrast, hydrochloride
# Protocol: FIG. 4E: […] The cells were cultured with DMSO vehicle (upper images) or with 40 μM ATR-101 (lower images) alone (left images), or in combination with 1.5 mM MβCD (middle images), or in combination with 40 μM cholesterol (right images). Cell morphology was visualized by phase contrast microscopy using a 10× objective. The images are representative of 5 fields under each set of culture conditions. The scale bars denote 100 μm.
# ACAT = conditions: cited from earlier work
# BD140C cells = assay: Visualization of NBD-cholesterol esterification; assay type: cell-based; conditions: compound 2 h then 2 h with NBD-cholesterol
# Protocol: (§3) The cells were seeded in 96-well ibiTreat μ-Plates and allowed to adhere for 48 h prior to the start of each experiment. Cholesterol was detected in fixed cells by incubating with 100 μg/ml filipin III at 37 C for 2 h. The bound filipin III was imaged by fluorescence microscopy using 377/11 nm excitation and 447/60 nm emission wavelengths. Images were captured using either a 4× or a 60× objective. Cholesterol esterification was visualized by culturing the cells with 1 μM NBD-cholesterol for 2 h following incubation with the indicated compounds. NBD-cholesterol esters were imaged by fluorescence microscopy using 485/20 nm excitation wavelengths. Images were captured using either a 20× or a 60× objective.
# (§4) The cells were seeded in 96-well ibiTreat μ-Plates (Ibidi) in 100 μl at a density of 50,000 cells per well. […] 5 μl of NBD-cholesterol was added to each well to produce a final concentration of 1 μM. When NBD-cholesterol is esterified and localized to cytoplasmic lipid droplets, it produces bright fluorescent foci in the cell. The inhibition of ACAT activity prevents fluorescent focus formation by NBD-cholesterol (see, e.g., Lada, et al., 2004 J Lipid Res, 45, 378-86). After 1.5 h, 5 μl of Hoechst 33342 was added to each well to produce a final concentration of 3 μg/ml. After 30 min, the medium was replaced with fresh medium. NBD-cholesterol esterification was visualized by fluorescence microscopy using either 485/20 nm (NBD) or 387/11 nm (Hoechst) excitation wavelengths and images were captured using either a 60× oil objective or a 20× objective.
# H295R cells [3] = assay: Visualization of NBD-cholesterol esterification; assay type: cell-based; conditions: compound 2 h then 2 h with NBD-cholesterol, hydrochloride
# Protocol: as §3, §4
# H295R cells [4] = assay: Cellular ATP level (CellTiter-Glo);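 further: ATP quantified by luminescence after lysing the cells in CellTiter-Glo reagent, with compound exposure at 37 °C under 5% CO2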
# ACC cell xenografts = conditions: nude mice; cited from earlier work
smiles,measurement,setting,value
"CC(C)c1cccc(C(C)C)c1NC(=O)NCC1(c2ccc(N(C)C)cc2)CCCC1.Cl [ATR-101, N-(2,6-bis(1-methylethyl)phenyl)-N′-((1-(4-(dimethylamino)phenyl)cyclopentyl)methyl)urea hydrochloride]","cholesterol efflux, compound alone",H295R cells [1],inhibited cholesterol efflux
same,CYP17A1 transcript level,CYP17A1,reduced
same,HSD3B2 transcript level,HSD3B2,reduced
same,IDOL transcript level,IDOL,reduced
same,ABCG1 transcript level,ABCG1; 4 h,inhibited
same,ABCG1 transcript level,ABCG1; within an hour after addition,reduced
same,SULT2A1 transcript level,SULT2A1,reduced
same,CHOP transcript level,CHOP,activated
same,ABCA1 transcript level,ABCA1; 4 h,inhibited
same,ABCA1 transcript level,ABCA1; within an hour after addition,reduced
same,doxorubicin accumulation,MDR1; 20 μM compound,increased doxorubicin accumulation
same,doxorubicin accumulation in the presence of MβCD,"MDR1; 100 μM ATR-101, 4 mM MβCD",caused doxorubicin accumulation in the presence of MβCD
same,tissue distribution of toxicity,cholesterol-rich tissues,"limited to cholesterol-rich tissues, including the adrenal cortex, the corpus luteum, and sebaceous glands"
same,"cell morphology, compound alone",H295R cells [2],"small, rounded and weakly attached to the plate"
same,ACAT activity,ACAT,inhibit ACAT activity
same,NBD-cholesterol esterification and accumulation in lipid droplets,BD140C cells,inhibited NBD-cholesterol esterification
same,NBD-cholesterol esterification and accumulation in lipid droplets,H295R cells [3],inhibits NBD-cholesterol esterification; also recorded: eliminated both the intense foci and the diffuse fluorescence
same,concentration required for ATP depletion and caspase activation relative to the concentration that inhibited cholesterol esterification,"H295R cells [4]; ACC-derived cells, 4 h",more than two orders of magnitude higher
same,time after ATR-101 addition at which ATP depletion was detected,"H295R cells [4]; H295R cells, 100 μM ATR-101",30 min
same,fold lower concentration that reduced the ATP level in combination than required separately,"H295R cells [4]; H295R cells, ATR-101 and rhodamine-123 in combination, 4 h",10 fold
same,"ATP level, compound alone","H295R cells [4]; H295R cells, serum-containing medium, 4 h",reduced the ATP level
same,"ATP level, compound alone","H295R cells [4]; H295R cells, serum-containing medium, 24 h",reduced the ATP levels
same,"ATP level, compound alone","H295R cells [4]; H295R cells, serum-free medium, 4 h",caused ATP depletion
same,establishment and growth of ACC cell xenografts,ACC cell xenografts,inhibits the establishment and impedes the growth
